The results in this text go back to ChEMBL document CHEMBL1156218, “The development and validation of a novel virtual screening cascade protocol to identify potential serotonin 5-HT(7)R antagonists” (Bioorg Med Chem Lett, 2010).

In assay [1] the target is T1, 5-hydroxytryptamine receptor 7 (Homo sapiens, UniProt P34969). Put plainly: Displacement of [3H]5CT from 5HT7 receptor at 0.1 uM.
For assay [2], the target named is T2, 5-hydroxytryptamine receptor 1A (Homo sapiens, UniProt P08908).
T2 sequence (P08908 whole entry): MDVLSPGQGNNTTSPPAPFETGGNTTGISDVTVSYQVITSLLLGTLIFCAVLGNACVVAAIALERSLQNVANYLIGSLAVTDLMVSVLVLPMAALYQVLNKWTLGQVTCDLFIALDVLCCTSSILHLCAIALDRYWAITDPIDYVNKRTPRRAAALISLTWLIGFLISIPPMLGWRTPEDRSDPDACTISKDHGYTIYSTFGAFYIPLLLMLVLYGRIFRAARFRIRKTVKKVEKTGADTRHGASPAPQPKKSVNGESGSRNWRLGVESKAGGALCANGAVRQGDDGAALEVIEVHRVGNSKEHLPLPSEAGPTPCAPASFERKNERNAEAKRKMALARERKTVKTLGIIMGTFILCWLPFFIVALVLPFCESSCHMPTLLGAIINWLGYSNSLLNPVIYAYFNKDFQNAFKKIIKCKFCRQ
Nature of the assay: Binding affinity at 5HT1A receptor.

The target of assay [3] is T1, 5-hydroxytryptamine receptor 7. Nature of the assay: Displacement of [3H]5CT from 5HT7 receptor at 1 uM. For orientation: Displacement assays read how much labelled ligand stays bound in the presence of the test substance.
For assay [4] the target is unchanged. Put plainly: Displacement of [3H]5CT from 5HT7 receptor. The settings on record: for pKi: read-out: Ki.

Molecules are shown by their SMILES. pKi: −log10 of the molar value.

As usually defined, the pKi is the Ki on a negative log10 scale, so that one unit is a factor of ten.

T1 sequence (P34969 whole entry): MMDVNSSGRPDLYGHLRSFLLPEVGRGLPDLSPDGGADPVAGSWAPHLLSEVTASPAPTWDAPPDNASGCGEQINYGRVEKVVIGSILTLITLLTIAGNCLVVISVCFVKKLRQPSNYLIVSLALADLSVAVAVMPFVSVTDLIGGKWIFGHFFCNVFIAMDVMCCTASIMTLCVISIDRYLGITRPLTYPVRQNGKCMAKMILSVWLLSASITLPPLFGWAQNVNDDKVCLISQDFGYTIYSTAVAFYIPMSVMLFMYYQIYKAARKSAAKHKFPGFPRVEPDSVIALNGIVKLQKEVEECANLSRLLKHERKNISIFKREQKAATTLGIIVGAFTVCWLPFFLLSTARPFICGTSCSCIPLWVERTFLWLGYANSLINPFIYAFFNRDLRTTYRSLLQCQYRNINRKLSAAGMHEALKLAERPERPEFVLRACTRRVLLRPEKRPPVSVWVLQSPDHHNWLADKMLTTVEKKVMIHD

On to `OC(CNCC1COc2ccccc2O1)COc1ccccc1F` (centres undefined), for which the Activity in assay [1] was 29%; in assay [3], 75%. Also, the pKi in assay [2] was 8.10; in assay [4], 6.71.

For the molecule `OC(CNCC1COc2ccccc2O1)COCc1ccccc1Cl` (centres undefined), the Activity in assay [1] was found to be 23%; in assay [3], 67%. Moreover, the pKi in assay [2] was 7.44; in assay [4], 6.58.

On to `O=C1Nc2cccc3c2[C@]1(CCCCN1CC=C(c2ccccc2)CC1)CCC3`, for which the Ki in assay [4] (read-out: pKi (converted)) is 2.14 nM.
